According to patent publication US20140086901A1, “Inhibition of Post-Radiation Tumor Growth” (The Board of Trustees of the Leland Stanford Junior …, priority 2008, published 2014):
Where two headings read alike, the source gives them in different places.

Key:
glioblastoma tumors = test: Intracranial glioblastoma tumor growth with or without irradiation (bioluminescence imaging); format: in vivo, mouse
Experimental: Tumor growth was analyzed by using an IVIS in vivo imaging system (Caliper Life Sciences, Hopkinton, Mass.) to monitor the bioluminescence imaging of brain tumor.
AMD3100 (Sigma-Aldrich) was prepared in sterile saline.
After tumor inoculation on brain, carragenan treatment was done every five days.

[1] = Body weight monitoring during drug treatment to assess side effects; settings: for loss in body weight during treatment: mice
[2] = tested on: CD45+CD11b+ and CD45+F4/80+ cells; test: Immunostaining of brain samples for BM-derived myelomonocytic cells in glioblastoma tumors; format: in vivo, mouse; settings: irradiation plus drug; harvested 18 days after irradiation
From the text: Primary antibodies for immunofluorescent staining included a rat monoclonal CD31/PECAM-1 (MEC13.3; BD Pharmingen, San Diego, Calif.), a rabbit polyclonal GFP antibody (Invitrogen, Eugene, Oreg.), a rabbit polyclonal MMP-9 (Abeam, Cambridge, Mass.), a biotinylated CD11b/macrophage-associated antigen-1α (M1/70; BD Pharmingen), a biotinylated CD11c (HL3; BD Pharmingen), a biotinylated Gr-1/Ly-6C (RB6-8C5; BD Pharmingen), rat monoclonal F4/80 (A3-1, Gnetex, Irvine, Calif.), and CD45 (BD Pharmingen). Anti phosphorylated CXCR-4 polyclonal antibody was obtained from Dr. J B Rubbin at Washington University.
Unless otherwise indicated, […] frozen sections of tumors were dried in air, hydrated with PBS, blocked with 5% goat serum in PBS (containing 0.03% Triton X-100) for 30 min, and incubated with primary antibodies for 2 hr at room temperature (RT). Sections were washed three times in PBS, followed by secondary antibody for 1 hr at RT. For glioblastomas, 5 μm frozen sections of tumors were dried in air, hydrated with PBS, blocked with 5% goat serum in PBS (containing 0.03% Triton X-100) for 30 min, and incubated with primary antibodies over night at 4° C. Sections were washed three times in PBS, followed by secondary antibody for 40 min at room temperature. […]

MT1A2 tumors = test: MT1A2 tumor growth on pre-irradiated tissues of BM-transplanted mice; settings: 100 μg/kg intraperitoneally once per day for up to 6 weeks
[3] = mouse, in vivo

Compound: c1cc(CN2CCCNCCNCCCNCC2)ccc1CN1CCCNCCNCCCNCC1 [AMD3100]
- growth of irradiated tumors (glioblastoma tumors; early tumor model, 2 Gy five times from day 11, drug for three weeks): significantly inhibited
- growth of irradiated tumors (glioblastoma tumors; late tumor model, 15 Gy on day 21, drug for three weeks): significantly inhibited
- loss in body weight during treatment [1]: did not show any significant loss in the weight

Compound: N#Cc1ccc(/C=C/C(=O)O)cc1 [NSC-134754]
- post-irradiation tumor growth (glioblastoma tumors; irradiation on day 20 plus drug daily for three weeks): decreased post-irradiation tumor growth
- CD45+CD11b+ cells in glioblastoma tumors [2]: absence
- CD45+F4/80+ cells in glioblastoma tumors [2]: absence
- loss in body weight during treatment [1]: did not show any significant loss in the weight

Compound: O=P(O)(O)C(O)(Cn1ccnc1)P(=O)(O)O [ZA, aminobisphosphonate zolendronic acid]
- loss in weight during treatment ([1]; treated every day): less than 10 % of body weight
- tumor growth on the irradiated site (MT1A2 tumors; MMP-9 KO+WT BM mice): significant inhibition of tumor growth
- tumor growth on pre-irradiated tissues (MT1A2 tumors; WT+KO BM mice): no effect on tumor growth

Compound: carrageenan
- growth of irradiated tumors (glioblastoma tumors; treated 1, 3 and 7 days prior to implantation, then every five days, 15 Gy on day 26): significantly inhibited
- loss in body weight during treatment [3]: did not show any significant loss in the weight
